In patent US20250115622A1, “Crystalline Forms Of An MCL-1 Inhibitor” (AMGEN INC., priority 2022, published 2025):
One block for each molecule: values may come before it.

Columns and labels:
[1] = Moisture sorption (DVS) profile; assay type: physicochemical
Description: Moisture Sorption: Moisture sorption data was collected using a VTI SGA 100 symmetrical vapor sorption analyzer. A sample size of approximately 5-10 mg was used in a platinum pan. Hygroscopicity was evaluated from 5 to 95% RH in increments of 5% RH. Data for adsorption and desorption cycles were collected. Equilibrium criteria were set at 0.001% weight change in 10 minutes with a maximum equilibration time of 180 minutes.

[2] = Thermodynamic stability of solid form; assay type: physicochemical
[3] = Bioavailability compared between crystalline forms; assay type: in vivo; conditions: relative to AMG 397 anhydrous form 4
[4] = Solubility compared between crystalline forms; assay type: physicochemical; conditions: relative to AMG 397 anhydrous form 4
Water content by KF = assay type: physicochemical
Description: AMG 397 hydrate Form 7 was prepared by charging ˜4 g of AMG 397 with 1-propanol and then slurrying at 55° C. for 4 days. Isolated solids were subsequently dried under vacuum at 95-105° C. for 7 days. Water content by KF was 0.9% initially and 5.6% after equilibration at ambient conditions. DVS indicates variable water content to 0-12% based on environment.

Compound: CO[C@]1(CN2CCN3CCCC[C@@H]3C2)/C=C/C[C@H](C)[C@@H](C)S(=O)(=O)NC(=O)c2ccc3c(c2)N(C[C@@H]2CC[C@H]21)C[C@@]1(CCCc2cc(Cl)ccc21)CO3 [amorphous AMG 397]
moisture sorption weight gain ([1]; by 95% relative humidity): ~6.4%
moisture sorption weight gain ([1]; by 95% relative humidity, listed as amorphous form of AMG 397): 6.4%

Compound: CO[C@]1(CN2CCN3CCCC[C@@H]3C2)/C=C/C[C@H](C)[C@@H](C)S(=O)(=O)NC(=O)c2ccc3c(c2)N(C[C@@H]2CC[C@H]21)C[C@@]1(CCCc2cc(Cl)ccc21)CO3 [anhydrous form 4]
thermodynamic stability of form [2]: thermodynamically stable form
moisture sorption weight gain ([1]; by 95% relative humidity): 4.5%
moisture sorption weight gain ([1]; by 95% relative humidity, listed as crystalline anhydrous form 4 of AMG 397): ~4.5%

Compound: CO[C@]1(CN2CCN3CCCC[C@@H]3C2)/C=C/C[C@H](C)[C@@H](C)S(=O)(=O)NC(=O)c2ccc3c(c2)N(C[C@@H]2CC[C@H]21)C[C@@]1(CCCc2cc(Cl)ccc21)CO3 [anhydrous form 6]
moisture sorption weight gain ([1]; 50-95% relative humidity): 10%
moisture sorption weight gain ([1]; between 0-50% relative humidity): 0.5%
moisture sorption weight gain ([1]; by 95% relative humidity): 10%

Compound: CO[C@]1(CN2CCN3CCCC[C@@H]3C2)/C=C/C[C@H](C)[C@@H](C)S(=O)(=O)NC(=O)c2ccc3c(c2)N(C[C@@H]2CC[C@H]21)C[C@@]1(CCCc2cc(Cl)ccc21)CO3 [hydrate form 1]
bioavailability [3]: higher
solubility [4]: higher
moisture sorption weight gain ([1]; by 95% relative humidity): 3.3%
moisture sorption weight gain ([1]; by 95% relative humidity, listed as crystalline hydrate form 1 of AMG 397): ~3.3%

Continued, values first:

moisture sorption weight gain ([1]; by 95% relative humidity): 3%
moisture sorption weight gain ([1]; by 95% relative humidity, listed as crystalline hydrate form 2 of AMG 397): ~3.0%
Compound: CO[C@]1(CN2CCN3CCCC[C@@H]3C2)/C=C/C[C@H](C)[C@@H](C)S(=O)(=O)NC(=O)c2ccc3c(c2)N(C[C@@H]2CC[C@H]21)C[C@@]1(CCCc2cc(Cl)ccc21)CO3 [hydrate form 2]

moisture sorption weight gain ([1]; by 95% relative humidity): 1.9%
moisture sorption weight gain ([1]; by 95% relative humidity, listed as crystalline hydrate form 3 of AMG 397): ~1.9%
Compound: CO[C@]1(CN2CCN3CCCC[C@@H]3C2)/C=C/C[C@H](C)[C@@H](C)S(=O)(=O)NC(=O)c2ccc3c(c2)N(C[C@@H]2CC[C@H]21)C[C@@]1(CCCc2cc(Cl)ccc21)CO3 [hydrate form 3]

water content by KF (Water content by KF; after equilibration at ambient conditions): 5.6%
water content by KF (Water content by KF; initially): 0.9%
variable water content (DVS) ([1]; based on environment): 0-12%
moisture sorption weight gain ([1]; by 95% relative humidity): 0-12%
variable water content (DVS) ([1]; moisture sorption profile): 0-12 % wt
Compound: CO[C@]1(CN2CCN3CCCC[C@@H]3C2)/C=C/C[C@H](C)[C@@H](C)S(=O)(=O)NC(=O)c2ccc3c(c2)N(C[C@@H]2CC[C@H]21)C[C@@]1(CCCc2cc(Cl)ccc21)CO3 [hydrate form 7]
